Results: ChEMBL document CHEMBL3399964, “Nine new diterpenes from the leaves of plantation-grown Cunninghamia lanceolata” (2015)
Where a name gives a salt, the structure may show the parent alone.

Test: Growth inhibition of human PC3 cells by colorimetric MTT assay
Format: functional
Details: PC-3

Row | SMILES | GI50
1 | C=CC(=C)[C@@H](C[C@H]1C(=C)CC[C@H]2[C@](C)(CO)CCC[C@]12C)OO | 34.4 µM
2 | C=CC(=C)[C@H](C[C@H]1C(=C)CC[C@H]2[C@](C)(CO)CCC[C@]12C)OO | 50.9 µM
3 | C=CC(=C)[C@@H](C[C@H]1C(=C)CC[C@@H]2[C@]1(C)CCC[C@@]2(C)C(=O)O)OO | 38 µM
4 | C=CC(=C)[C@H](C[C@H]1C(=C)CC[C@@H]2[C@]1(C)CCC[C@@]2(C)C(=O)O)OO | > 100 µM
5 | C=C/C(C)=C/[C@@H](OC(C)=O)[C@H]1C(=C)CC[C@@H]2[C@]1(C)CCC[C@@]2(C)C(=O)O | 57.2 µM
6 | C=C/C(C)=C/[C@@H](OC(C)=O)[C@H]1C(=C)CC[C@@H]2[C@]1(C)CCC[C@@]2(C)C(=O)OC | 58.3 µM
7 | C=C/C(C)=C/C[C@H]1C(=C)CC[C@H]2[C@](C)(CO)CCC[C@]12C | 35 µM
8 | C=C/C(C)=C/C[C@H]1C(=C)CC[C@@H]2[C@]1(C)CCC[C@@]2(C)C(=O)O | > 100 µM
9 | C=CC(=C)CC[C@@H]1[C@@]2(C)CCC[C@](C)(COC(=O)/C=C\c3ccccc3)[C@@H]2CC[C@@]1(C)O | > 100 µM
10 | C=CC(=C)CC[C@@H]1[C@@]2(C)CCC[C@](C)(COC(=O)/C=C/c3ccccc3)[C@@H]2CC[C@@]1(C)O | 10.6 µM
11 | CC(C)c1cc2c3c(c1O)O[C@@H]1CCC(C)(C)[C@H](CC2)[C@@]31C | 27.4 µM
12 | Cc1cc2c(C(C)C)ccc(C)c2cc1O | 54 µM
13 | COc1cccc2c1C(=O)c1c(O)c3c(c(O)c1C2=O)C[C@@](O)(C(=O)CO)C[C@@H]3O[C@H]1C[C@H](N)[C@H](O)[C@H](C)O1 [DOXORUBICIN HYDROCHLORIDE] | 1.1 µM
14 | COc1ccc(-c2cc(=O)c3c(O)cc(O)c(-c4cc(-c5cc(=O)c6c(O)cc(O)cc6o5)ccc4O)c3o2)cc1 [PODOCARPUSFLAVONE A] | > 100 µM
15 | COc1cc(O)c2c(=O)cc(-c3ccc(O)c(-c4c(O)cc(O)c5c(=O)cc(-c6ccc(O)cc6)oc45)c3)oc2c1 [SEQUOIAFLAVONE] | 43.3 µM
